Measurements reported in paper PMC9428149, “Tackling recalcitrant Pseudomonas aeruginosa infections in critical illness via anti-virulence monotherapy” (Nature Communications, 2022).
Converted amounts (≈) assume the structure as drawn. “And” between values parts separate entries of the source, which are not always exact repeats. Equal entries are not always repeated. Where two headings read alike, the source gives them in different places.

Tests used:
[1] = test system: pyocyanin production in PA14; assay: Pyocyanin production assay; details: Pseudomonas aeruginosa; for activity at 50 µM: PA14, 18 h, read-out: % Production Pyocyanin; for IC50: PA14, read-out: IC50 pyocyanin production
ΔmvfR biofilm = assay: Biofilm formation of ΔmvfR mutant (off-target); details: Pseudomonas aeruginosa, PA14, 24 h, read-out: Biofilm formation, ΔmvfR + compound; PA14 about 100; single replicates (Figure 4c)
Protocol: Biofilm was grown in the 96-well microtiter plate at 37 °C for 24 h containing M63 minimal media in the presence of 10 µM of the compounds or vehicle. The biofilm grown with the vehicle was considered as a control. The percentage value was calculated in comparison to the PA14 control. a–c Data represent at least n = 3, each dot on the graph represents one biological replicate. The number of biological replicates for each compound and strain is depicted in the graph. The error bars denote ±SEM.
The overnight grown starter culture was diluted 1:1000 in 5 mL LB media in a glass tube and was incubated at 37 °C and 200 rpm in an incubator shaker until the culture reached an OD600nm 3.0. The culture was then diluted at 1:100 in M63 minimal media supplemented with 0.2% glucose, 0.5% Casamino Acids, and 1 mM MgSO4. Initiation of the Biofilm formation was performed in the 96 well plates; 200 µL of diluted culture was added in the wells with (10 µM) or without compounds. The cultures were allowed to grow at 37 °C in static conditions for 24 hours. Thereafter, planktonic culture was removed from the wells, and wells were washed three times with distilled water (DW). Biofilm was stained with 0.1% crystal violet and incubated for 15 min at room temperature (RT). Access dye was removed from the wells and washed off three times with DW, and 200 µL ethanol: acetone (80:20) was added to the wells. The plate was incubated for 30 min at RT, and the OD was measured by spectrophotometry at 570 nm in the infinite F200 plate reader using the Magellan software (Tecan, Switzerland). Percent biofilm formation was calculated in comparison to PA14 culture that was grown in the absence of compounds.

[2] = Solubility in iPBS pH 7.4 by HPLC; type: physicochemical; details: isotonic phosphate buffer (iPBS), aqueous with cosolvent or surfactant or cyclodextrin, kinetic from dmso stock; iPBS pH 7.4, HPLC; read-out: Solubility (M) in PBS
How it was run: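 Compounds from 10 mM DMSO stock shaken 4 h at room temperature in iPBS pH 7.4 (10 mM PBS, 2.7 mM KCl, 140 mM NaCl, 0.05% Tween), then filtered. Concentration measured by HPLC-UV against a known standard solution; solubility given as ratio of compound in test solution to standard.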

MvfR protein (MvfRC87) = biological target: T1, MvfR protein (MvfRC87) (Pseudomonas aeruginosa, UniProt Q9I4X0); type: binding; details: SPR
T1 construct: The MvfRC87 protein purified as in Xiao et. al., 2006; made in house
T1 sequence (Q9I4X0 87-332): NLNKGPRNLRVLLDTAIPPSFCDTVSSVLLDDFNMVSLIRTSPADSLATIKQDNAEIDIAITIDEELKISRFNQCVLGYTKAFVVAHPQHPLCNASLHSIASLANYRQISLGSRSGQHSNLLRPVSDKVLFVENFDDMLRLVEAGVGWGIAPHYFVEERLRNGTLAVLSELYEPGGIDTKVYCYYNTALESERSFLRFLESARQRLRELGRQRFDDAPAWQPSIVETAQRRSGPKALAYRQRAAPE
How it was run: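 MvfRC87 amine-coupled to a CM7 chip (3000–5000 RU) and binding measured by SPR. Double-reference-corrected responses 5 s before end of association plotted against concentration, for inhibitor alone and with native ligand PQS, compared with responses calculated for different binding sites.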

[3] = test system: pqsA promoter (PA14 PpqsA-GFPASV); assay: pqsA-GFP reporter expression; type: cell-based, Pseudomonas aeruginosa; details: Pseudomonas aeruginosa; for activity at 50 µM: PA14, read-out: % Production pqsA-GFP; for IC50: PA14, read-out: IC50 pqsA-GFP expression, PA14, 13 concentrations
[4] = test system: mvfR mutant constitutively expressing the pqsABCDE operon; type: cell-based; details: Pseudomonas aeruginosa, control about 100, single replicates (Figure 4a)
[5] = test system: MvfR-regulated small molecules in PA14; assay: Production of HAQs, 2-AA, DHQ and AA in PA14 cultures (LC-MS); details: Pseudomonas aeruginosa
[6] = test system: 16 MDR P. aeruginosa clinical isolates; assay: Pyocyanin production in MDR clinical isolates; details: Pseudomonas aeruginosa, 18 h, Control about 100, replicates
[7] = test system: PA14 isogenic mutant ΔmvfR AT/P cells; assay: AT/P cell formation in ΔmvfR mutant (off-target); details: Pseudomonas aeruginosa, PA14, 24 h, read-out: AT/P cell formation, ΔmvfR + compound; PA14 about 100; single replicates (Figure 4b)
PA14 AT/P cells = assay: AT/P cells formation assay in PA14; type: cell-based, Pseudomonas aeruginosa; details: for inhibition at 10 µM: Pseudomonas aeruginosa, PA14, 24 h, read-out: inhibition of AT/P cells formation
[8] = PA14, read-out: % Production 2-AA
[9] = PA14, read-out: % Production AA
[10] = PA14, read-out: % Production DHQ
[11] = PA14, read-out: % Production HHQ
[12] = PA14, read-out: % Production HQNO
[13] = PA14, read-out: % Production PQS
[14] = PA14, read-out: HHQ production inhibition
[15] = PA14, read-out: HQNO production inhibition
[16] = PA14, read-out: PQS production inhibition
[17] = PA14, read-out: inhibition of 2-AA production
[18] = PA14, read-out: inhibition of DHQ production
[19] = read-out: Pyocyanin production relative to Control, clinical isolate LGR-4325
[20] = read-out: Pyocyanin production relative to Control, clinical isolate LGR-4326
[21] = read-out: Pyocyanin production relative to Control, clinical isolate LGR-4327
[22] = read-out: Pyocyanin production relative to Control, clinical isolate LGR-4328
[23] = read-out: Pyocyanin production relative to Control, clinical isolate LGR-4330
[24] = read-out: Pyocyanin production relative to Control, clinical isolate LGR-4331 (first section, r117)
[25] = read-out: Pyocyanin production relative to Control, clinical isolate LGR-4331 (second section, r140)
[26] = read-out: Pyocyanin production relative to Control, clinical isolate LGR-4333
[27] = read-out: Pyocyanin production relative to Control, clinical isolate LGR-4343
[28] = read-out: Pyocyanin production relative to Control, clinical isolate LGR-4344
[29] = read-out: Pyocyanin production relative to Control, clinical isolate LGR-4348
[30] = read-out: Pyocyanin production relative to Control, clinical isolate LGR-4356
[31] = read-out: Pyocyanin production relative to Control, clinical isolate LGR-4362
[32] = read-out: Pyocyanin production relative to Control, clinical isolate LGR-4363
[33] = read-out: Pyocyanin production relative to Control, clinical isolate LGR-4364 (first section, r326)
[34] = read-out: Pyocyanin production relative to Control, clinical isolate LGR-4364 (second section, r349)

Compound N#Cc1ccc(NC(=O)CC(=O)Nc2ccc(C(F)(F)F)cc2)cc1 [D69] has an activity at 50 µM [1] of 4%, an IC50 [1] of 960 nM and an activity at 10 µM (ΔmvfR biofilm) of 24.2%. The solubility at 4 h [2] was 2.1e-05 M (≈ 7.29 µg/mL), the “Response Unit (RU)” value (MvfR protein (MvfRC87); Concentration 1.00E-05 M) was 30 RU and the “Response Unit (RU)” value (MvfR protein (MvfRC87); Concentration 1.00E-06 M) was 22.4 RU. For the same compound, the “Response Unit (RU)” value (MvfR protein (MvfRC87); Concentration 1.00E-07 M) was 8.9 RU, the “Response Unit (RU)” value (MvfR protein (MvfRC87); Concentration 1.00E-08 M) was 1.7 RU and the “Response Unit (RU)” value (MvfR protein (MvfRC87); Concentration 3.16E-06 M) was 27.3 RU. The “Response Unit (RU)” value (MvfR protein (MvfRC87); Concentration 3.16E-07 M) was 15.6 RU, the “Response Unit (RU)” value (MvfR protein (MvfRC87); Concentration 3.16E-08 M) was 4.1 RU and the activity at 50 µM [3] was 2%. For the same compound, the IC50 [3] was 1700 nM, the activity at 50 µM ([4]; read-out: DHQ, ΔmvfR-pqsABCD strain) was 112% and the activity at 50 µM ([4]; read-out: PQS, ΔmvfR-pqsABCD strain) was 90.7%. For the same compound, the activity at 50 µM [5, 8] was 15%, the activity at 50 µM [5, 9] was 920% and the activity at 50 µM [5, 10] was 13%. It also gave an activity at 50 µM [5, 11] of 6%, an activity at 50 µM [5, 12] of 40% and an activity at 50 µM [5, 13] of 16%. It also gave an inhibition at 50 µM [5, 14] of 89 to 99%, an inhibition at 50 µM [5, 15] of 40 to 92% and an inhibition at 50 µM [5, 16] of 76 to 97%. The inhibition at 50 µM [5, 17] was 82 to 95%, the inhibition at 50 µM [5, 18] was 82 to 96% and the activity at 10 µM [6, 19] was 6.19%. It also gave an activity at 10 µM [6, 20] of 4.51%, an activity at 10 µM [6, 21] of 7.7% and an activity at 10 µM [6, 22] of 29.6%. For the same compound, the activity at 10 µM [6, 23] was 12.9%, the activity at 10 µM [6, 24] was 9.26% and the activity at 10 µM [6, 25] was 4.8%. The activity at 10 µM [6, 26] was 6.7%, the activity at 10 µM [6, 27] was 10.8% and the activity at 10 µM [6, 28] was 11.6%. It also gave an activity at 10 µM [6, 29] of 7.58%, an activity at 10 µM [6, 30] of 6.29% and an activity at 10 µM [6, 31] of 12.3%. It also gave an activity at 10 µM [6, 32] of 9.09%, an activity at 10 µM [6, 33] of 10.1% and an activity at 10 µM [6, 34] of 11.1%. For the same compound, the activity at 10 µM [7] was 30.1%, the “AT/P cells formation, percentage of control (single replicates)” value (PA14 AT/P cells; PA14, 10 μg mL^−1 meropenem, 10 µM compound, 24 h, control PA14 + vehicle) was 16.39% and 11.56% and the inhibition at 10 µM (PA14 AT/P cells) was at least 76%.
N#Cc1ccc(NC(=O)CC(=O)Nc2ccc(Cl)cc2)cc1 [D41] gave an activity at 50 µM [1] of 6%, an IC50 [1] of 1800 nM and an activity at 10 µM (ΔmvfR biofilm) of 25.4%. The solubility at 4 h [2] was 1.3e-05 M (≈ 4.08 µg/mL), the “Response Unit (RU)” value (MvfR protein (MvfRC87); Concentration 1.00E-05 M) was 28.8 RU and the “Response Unit (RU)” value (MvfR protein (MvfRC87); Concentration 1.00E-06 M) was 22.7 RU. The “Response Unit (RU)” value (MvfR protein (MvfRC87); Concentration 1.00E-07 M) was 10.6 RU, the “Response Unit (RU)” value (MvfR protein (MvfRC87); Concentration 1.00E-08 M) was 2.6 RU and the “Response Unit (RU)” value (MvfR protein (MvfRC87); Concentration 3.16E-06 M) was 26.5 RU. The “Response Unit (RU)” value (MvfR protein (MvfRC87); Concentration 3.16E-07 M) was 16.9 RU, the “Response Unit (RU)” value (MvfR protein (MvfRC87); Concentration 3.16E-08 M) was 5.4 RU and the activity at 50 µM [3] was 8%. For the same compound, the IC50 [3] was 1090 nM, the activity at 50 µM ([4]; read-out: HQNO, ΔmvfR-pqsABCD strain) was 81.9% and the activity at 50 µM [5, 8] was 6%. The activity at 50 µM [5, 9] was 739%, the activity at 50 µM [5, 10] was 11% and the activity at 50 µM [5, 11] was 2%. For the same compound, the activity at 50 µM [5, 12] was 15%, the activity at 50 µM [5, 13] was 9% and the inhibition at 50 µM [5, 14] was 89 to 99%. For the same compound, the inhibition at 50 µM [5, 15] was 40 to 92%, the inhibition at 50 µM [5, 16] was 76 to 97% and the inhibition at 50 µM [5, 17] was 82 to 95%. The inhibition at 50 µM [5, 18] was 82 to 96%, the activity at 10 µM [6, 19] was 15.5% and the activity at 10 µM [6, 20] was 14.8%. For the same compound, the activity at 10 µM [6, 21] was 34.4%, the activity at 10 µM [6, 22] was 11.9% and the activity at 10 µM [6, 23] was 13.4%. For the same compound, the activity at 10 µM [6, 24] was 17.4%, the activity at 10 µM [6, 25] was 10.7% and the activity at 10 µM [6, 26] was 18.8%. The activity at 10 µM [6, 27] was 17.4%, the activity at 10 µM [6, 28] was 21.8% and the activity at 10 µM [6, 29] was 17.7%. It also gave an activity at 10 µM [6, 30] of 18.8%, an activity at 10 µM [6, 31] of 35.7% and an activity at 10 µM [6, 32] of 23.4%. The activity at 10 µM [6, 33] was 19.1%, the activity at 10 µM [6, 34] was 22% and the activity at 10 µM [7] was 43.4%. It also gave an inhibition at 10 µM (PA14 AT/P cells) of at least 76%.
